From ChEMBL document CHEMBL5385929, “Tabersonine Enhances Olaparib Sensitivity through FHL1-Mediated Epithelial-Mesenchymal Transition in an Ovarian Tumor” (J Nat Prod, 2024)
The source made the active and inactive calls. The rule behind the calls is not given here.

What was measured:
SK-OV-3 [1] = assay: Antiproliferative activity against human SK-OV-3 cells assessed as inhibition of cell viability measured after 48 hrs by CCK8 assay; assay type: functional, cell-based; details: SK-OV-3, 48 h
A2780 [2] = assay: Antitumor activity against human A2780 cells xenografted in BALB/c mouse assessed as decrease in tumor volume at 5 to 15 mg/kg, ip administered every other day for 2 weeks; assay type: functional, organism-based; details: dose 5-15 mg/kg
A2780 [3] = assay: Potentiation of olaparib-induced antitumor activity against shFHL1-1 RNA-transfected human A2780 cells xenografted in BALB/c mouse assessed as decrease in tumor volume at 15 mg/kg, ip co-administered with olaparib for 2 weeks; assay type: functional, organism-based
A2780 [4] = assay: Potentiation of olaparib sensitivity in human A2780 cells assessed as inhibition of colony formation at 10 uM incubated for 48 hrs in presence of olaparib followed by drug wash-out and incubated in fresh medium for 2 weeks by crystal violet staining based analysis; assay type: functional, cell-based
Mus musculus [5] = assay: Potentiation of olaparib sensitivity in BALB/c mouse xenografted with shNC RNA-transfected human A2780 cells assessed as downregulation of N-cadherin protein expression in tumor at 15 mg/kg, ip co-administered with olaparib for 2 weeks by western blot analysis; assay type: functional, organism-based
A2780 [6] = assay: Potentiation of olaparib-induced antitumor activity against shNC RNA-transfected human A2780 cells xenografted in BALB/c mouse assessed as decrease in lung metastatic nodules at 15 mg/kg, ip co-administered with olaparib every other day from day 6 of tumor cell inoculation and measured on day 30 post-tumor cell inoculation by H and E staining based bright field microscopic analysis; assay type: functional, organism-based; details: time 24.0 day
SK-OV-3 [7] = assay: Inhibition of cell invasion in human SK-OV-3 cells transfected with shFHL1-2 RNA at 10 uM measured after 48 hrs by Transwell assay; assay type: functional, cell-based
Mus musculus [8] = assay: Potentiation of olaparib sensitivity in BALB/c mouse xenografted with shNC RNA-transfected human A2780 cells assessed as upregulation of FHL1 protein expression in tumor at 15 mg/kg, ip co-administered with olaparib for 2 weeks by western blot analysis; assay type: functional, organism-based
A2780 [9] = assay: Downregulation of EMT signalling in human A2780 cells transfected with shFHL1-2 RNA assessed as E-cadherin protein expression at 10 uM by western blot analysis; assay type: functional, cell-based
SK-OV-3 [10] = assay: Effect on FHL1 mRNA expression in human SK-OV-3 cells at 5 to 20 uM by real-time PCR analysis; assay type: functional, cell-based; details: dose 5-20 µM
SK-OV-3 [11] = assay: Synergistic antiproliferative activity against human SK-OV-3 cells assessed as combination index for reduction of cell viability in presence of olaparib by CCK8 assay; assay type: functional
A2780 [12] = assay: Potentiation of olaparib sensitivity in human A2780 cells assessed as inhibition of cell invasion at 10 uM measured after 48 hrs in presence of olaparib by Transwell assay; assay type: functional, cell-based
A2780 [13] = assay: Antiproliferative activity against human A2780 cells assessed as inhibition of cell viability measured after 48 hrs by CCK8 assay; assay type: functional, cell-based; details: A2780, 48 h
Mus musculus [14] = assay: Potentiation of olaparib sensitivity in BALB/c mouse xenografted with shNC RNA-transfected human A2780 cells assessed as upregulation of E-cadherin protein expression in tumor at 15 mg/kg, ip co-administered with olaparib for 2 weeks by western blot analysis; assay type: functional, organism-based
[15] = Toxicity in BALB/c mouse xenografted with human A2780 cells assessed as effect on body weight at 5 to 15 mg/kg, ip administered every other day for 2 weeks; assay type: organism-based; details: in vivo, 336 h, dose 5-15 mg/kg
SK-OV-3 [16] = assay: Inhibition of cell migration in human SK-OV-3 cells transfected with shFHL1-2 RNA at 10 uM measured after 24 to 48 hrs by wound healing assay; assay type: functional, cell-based; details: time 24-48 hrs
A2780 [17] = assay: Potentiation of olaparib sensitivity in human A2780 cells transfected with shFLH1-2 RNA assessed as downregulation of EMT signaling by measuring E-cadherin protein expression at 10 uM in presence of olaparib by western blot analysis; assay type: functional, cell-based
SK-OV-3 [18] = assay: Inhibition of cell migration in human SK-OV-3 cells transfected with shFHL1-1 RNA at 10 uM measured after 24 to 48 hrs by wound healing assay; assay type: functional, cell-based; details: time 24-48 hrs
Mus musculus [19] = assay: Potentiation of olaparib sensitivity in BALB/c mouse xenografted with shFHL1-1 RNA-transfected human A2780 cells assessed as downregulation of N-cadherin protein expression in tumor at 15 mg/kg, ip co-administered with olaparib for 2 weeks by western blot analysis; assay type: functional, organism-based
[20] = Toxicity in BALB/c mouse xenografted with human A2780 cells assessed as decrease in body weight at 30 mg/kg, ip administered every other day and measured on day 6; assay type: organism-based; details: in vivo, 144 h, time 6 day
Mus musculus [21] = assay: Potentiation of olaparib sensitivity in BALB/c mouse xenografted with shFHL1-1 RNA-transfected human A2780 cells assessed as downregulation of vimentin protein expression in tumor at 15 mg/kg, ip co-administered with olaparib for 2 weeks by western blot analysis; assay type: functional, organism-based
A2780 [22] = assay: Potentiation of olaparib-induced antitumor activity against shNC RNA-transfected human A2780 cells xenografted in BALB/c mouse assessed as decrease in tumor weight at 15 mg/kg, ip co-administered with olaparib for 2 weeks; assay type: functional, organism-based
SK-OV-3 [23] = assay: Downregulation of EMT signalling in human SK-OV-3 cells transfected with shFHL1-1 RNA assessed as N-cadherin protein expression at 10 uM by western blot analysis; assay type: functional, cell-based
Mus musculus [24] = assay: Potentiation of olaparib sensitivity in BALB/c mouse xenografted with shFHL1-1 RNA-transfected human A2780 cells assessed as upregulation of E-cadherin protein expression in tumor at 15 mg/kg, ip co-administered with olaparib for 2 weeks by western blot analysis; assay type: functional, organism-based
A2780 [25] = assay: Inhibition of cell invasion in human A2780 cells transfected with shFHL1-1 RNA at 10 uM measured after 48 hrs by Transwell assay; assay type: functional, cell-based
[26] = Toxicity in BALB/c mouse xenografted with human A2780 cells assessed as animal's death at 30 mg/kg, ip administered every other day and measured on day 6; assay type: organism-based; details: in vivo, 144 h, time 6 day
A2780 [27] = assay: Antitumor activity against human A2780 cells xenografted in BALB/c mouse assessed as decrease in tumor growth at 5 to 15 mg/kg, ip administered every other day for 2 weeks; assay type: functional, organism-based; details: dose 5-15 mg/kg
A2780 [28] = assay: Potentiation of olaparib-induced antitumor activity against shNC RNA-transfected human A2780 cells xenografted in BALB/c mouse assessed as decrease in tumor volume at 15 mg/kg, ip co-administered with olaparib for 2 weeks; assay type: functional, organism-based
A2780 [29] = assay: Potentiation of olaparib sensitivity in human A2780 cells transfected with shFLH1-1 RNA assessed as downregulation of EMT signaling by measuring vimentin protein expression at 10 uM in presence of olaparib by western blot analysis; assay type: functional, cell-based
SK-OV-3 [30] = assay: Potentiation of olaparib sensitivity in human SK-OV-3 cells transfected with shFHL1-2 RNA assessed as inhibition of cell invasion at 10 uM measured after 48 hrs in presence of olaparib by Transwell assay; assay type: functional, cell-based
SK-OV-3 [31] = assay: Potentiation of olaparib sensitivity in human SK-OV-3 cells transfected with shFLH1-2 RNA assessed as downregulation of EMT signaling by measuring N-cadherin protein expression at 10 uM in presence of olaparib by western blot analysis; assay type: functional, cell-based

In the case of `CC[C@]12C=CCN3CC[C@]4(C(=C(C(=O)OC)C1)Nc1ccccc14)[C@@H]32` [TABERSONINE], the IC50 (SK-OV-3 [1]) is reported as 25 µM, the Activity (A2780 [2]) is reported as “Active” and the Activity (A2780 [3]) is reported as “inactive”. For the same compound, the Activity (A2780 [4]) was “Active”, the Activity (Mus musculus [5]) was “Active” and the Activity (A2780 [6]) was “Active”. The inhibition (SK-OV-3 [7]) was “inactive”, the Activity (Mus musculus [8]) was “Active” and the inhibition (A2780 [9]) was “inactive”. The Activity (SK-OV-3 [10]) was “inactive”, the CI (SK-OV-3 [11]) was less than 1 and the Activity (A2780 [12]) was “Active”. The IC50 (A2780 [13]) was 18 µM, the Activity (Mus musculus [14]) was “Active” and the Activity [15] was “Non-Toxic”. The inhibition (SK-OV-3 [16]) was “inactive”, the Activity (A2780 [17]) was “inactive” and the inhibition (SK-OV-3 [18]) was “inactive”. The Activity (Mus musculus [19]) was “inactive”, the Activity [20] was “Toxic” and the Activity (Mus musculus [21]) was “inactive”. For the same compound, the Activity (A2780 [22]) was “Active”, the inhibition (SK-OV-3 [23]) was “inactive” and the Activity (Mus musculus [24]) was “inactive”. For the same compound, the inhibition (A2780 [25]) was “inactive”, the Activity [26] was “Toxic” and the Activity (A2780 [27]) was “Active”. For the same compound, the Activity (A2780 [28]) was “Active”, the Activity (A2780 [29]) was “inactive” and the Activity (SK-OV-3 [30]) was “inactive”. For the same compound, the Activity (SK-OV-3 [31]) was “inactive”.
